For the experiment, the system named is P388 leukemia ip, CD2F1 mice, survival T/C. Description: NCI In Vivo Anticancer Drug Screen. Data for tumor model P388 Leukemia (intraperitoneal) in CD2F1 (CDF1) mice. Conditions: endpoint: median survival time, higher = longer survival. The procedure, abridged: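 Mice carrying the transplanted tumor received test compound or vehicle. Survival was recorded in each group, and the value is the treated-group measurement divided by that of the vehicle-treated control group.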

[1] abbreviates: dose: 50.0 mg/kg/injection, schedule: Q01DX009 (ip), vehicle: Klucel (hydroxypropylcellulose) (HPC).
Where [2] appears, read: dose: 100.0 mg/kg/injection, schedule: Q01DX009 (ip), vehicle: Klucel (hydroxypropylcellulose) (HPC).
Setting [3] is: dose: 200.0 mg/kg/injection, schedule: Q01DX009 (ip), vehicle: Klucel (hydroxypropylcellulose) (HPC).
The mark [4] stands for this setting: dose: 50.0 mg/kg/injection, schedule: Q01DX005 (ip), vehicle: saline.
The mark [5] stands for this setting: dose: 100.0 mg/kg/injection, schedule: Q01DX005 (ip), vehicle: saline.
[6] abbreviates: dose: 200.0 mg/kg/injection, schedule: Q01DX005 (ip), vehicle: saline.
The mark [7] stands for this setting: dose: 100.0 mg/kg/injection, schedule: Q01DX001 (ip), vehicle: Klucel (hydroxypropylcellulose) (HPC).
Setting [8] is: dose: 200.0 mg/kg/injection, schedule: Q01DX001 (ip), vehicle: Klucel (hydroxypropylcellulose) (HPC).
[9] abbreviates: dose: 400.0 mg/kg/injection, schedule: Q01DX001 (ip), vehicle: Klucel (hydroxypropylcellulose) (HPC).
[10] abbreviates: dose: 60.0 mg/kg/injection, schedule: Q01DX005 (ip), vehicle: saline with Tween-80.
The mark [11] stands for this setting: dose: 120.0 mg/kg/injection, schedule: Q01DX005 (ip), vehicle: saline with Tween-80.
Setting [12] is: dose: 240.0 mg/kg/injection, schedule: Q01DX005 (ip), vehicle: saline with Tween-80.
The mark [13] stands for this setting: dose: 25.0 mg/kg/injection, schedule: Q01DX009 (ip), vehicle: saline.
Setting [14] is: dose: 50.0 mg/kg/injection, schedule: Q01DX009 (ip), vehicle: saline with Tween-80.
The mark [15] stands for this setting: dose: 100.0 mg/kg/injection, schedule: Q01DX009 (ip), vehicle: saline with Tween-80.
The mark [16] stands for this setting: dose: 200.0 mg/kg/injection, schedule: Q01DX009 (ip), vehicle: saline with Tween-80.

Where “and” joins values, the source holds several entries; their conditions need not be identical. Equal values may be shown once. Inconclusive results and toxic doses are left out.

With `CC(=O)OC(C(=O)C=[N+]=[N-])C(OC(C)=O)C(OC(C)=O)C(=O)C=[N+]=[N-]` (stereo not drawn), the T/C is 99 % of control under setting [1], 113 % of control under setting [2] and 108 % of control under setting [3].
For the compound `CCCCNC(c1ccc(N(CC)CC)cc1)C(Cl)(Cl)Cl` (stereo not drawn), the T/C runs as follows: under setting [4], 105 % of control and 106 % of control; (dose: 50.0 mg/kg/injection, schedule: Q01DX005 (ip), vehicle: water) 100 % of control; under setting [5], 108 % of control and 116 % of control; (dose: 100.0 mg/kg/injection, schedule: Q01DX005 (ip), vehicle: water) 93 % of control; under setting [6], 110 % of control.
Take `O=C(NN(Cn1c(=S)sc2ccccc21)Cn1c(=S)sc2ccccc21)c1cccc([N+](=O)[O-])c1`: the T/C is 93 % of control under setting [7], 92 % of control under setting [8] and 113 % of control under setting [9].
Take `Oc1ccc(C(c2cc3c(cc2O)OCO3)N2CCNCC2)cc1` (stereo not drawn): the T/C reads like this: under setting [10], 114 % of control; under setting [11], 115 % of control; under setting [12], 113 % of control.
Turning to `CC1(C)COC2(c3ccccc3)N(c3ccccc3)C(=O)ON12` (stereo not drawn), the T/C was 100 % of control (dose: 60.0 mg/kg/injection, schedule: Q01DX001 (ip), vehicle: Klucel (hydroxypropylcellulose) (HPC)); 100 % of control (dose: 120.0 mg/kg/injection, schedule: Q01DX001 (ip), vehicle: Klucel (hydroxypropylcellulose) (HPC)); 103 % of control (dose: 240.0 mg/kg/injection, schedule: Q01DX001 (ip), vehicle: Klucel (hydroxypropylcellulose) (HPC)).
For the compound `O=C(NC1c2ccccc2Oc2ccccc21)c1ccccc1`, the T/C is, setting by setting: (dose: 12.5 mg/kg/injection, schedule: Q04DX003 (ip), vehicle: distilled water + Tween-80) 93 % of control; (dose: 25.0 mg/kg/injection, schedule: Q04DX003 (ip), vehicle: distilled water + Tween-80) 92 % of control; (dose: 50.0 mg/kg/injection, schedule: Q04DX003 (ip), vehicle: distilled water + Tween-80) 93 % of control; (dose: 100.0 mg/kg/injection, schedule: Q04DX003 (ip), vehicle: distilled water + Tween-80) 93 % of control.
On to `Nc1nc(=S)c2ncn(C3CC(O)C(CO)O3)c2[nH]1` (stereo not drawn), for which the T/C (dose: 10.0 mg/kg/injection, schedule: Q01DX009 (ip), vehicle: Klucel (hydroxypropylcellulose) (HPC)) was 118 % of control; the T/C (dose: 12.5 mg/kg/injection, schedule: Q01DX005 (ip), vehicle: saline) was 118 % of control; the T/C (dose: 12.5 mg/kg/injection, schedule: Q01DX005 (iv), vehicle: saline) was 101 % of control; the T/C (dose: 12.5 mg/kg/injection, schedule: Q01DX009 (ip), vehicle: Klucel (hydroxypropylcellulose) (HPC)) was 122 % of control; the T/C (dose: 20.0 mg/kg/injection, schedule: Q01DX009 (ip), vehicle: Klucel (hydroxypropylcellulose) (HPC)) is 95 % of control; the T/C (dose: 25.0 mg/kg/injection, schedule: Q01DX005 (ip), vehicle: saline) was 109 % of control. Further, the T/C is, setting by setting: (dose: 25.0 mg/kg/injection, schedule: Q01DX005 (iv), vehicle: saline) 102 % of control; (dose: 25.0 mg/kg/injection, schedule: Q01DX009 (ip), vehicle: saline sonified) 168 % of control; under setting [13], 117 % of control; under setting [4], 109 % of control; (dose: 50.0 mg/kg/injection, schedule: Q01DX005 (iv), vehicle: saline) 102 % of control and 106 % of control; under setting [1], 118 % of control. Besides, the T/C under setting [14] was 162 % of control; the T/C (dose: 100.0 mg/kg/injection, schedule: Q01DX005 (iv), vehicle: saline) is 103 % of control and 108 % of control; the T/C under setting [2] was 113 % of control; the T/C (dose: 100.0 mg/kg/injection, schedule: Q01DX009 (ip), vehicle: saline) is 169 % of control; the T/C under setting [6] was 153 % of control; the T/C (dose: 200.0 mg/kg/injection, schedule: Q01DX005 (iv), vehicle: saline) is 122 % of control. Besides, under “dose: 200.0 mg/kg/injection, schedule: Q01DX009 (ip), vehicle: saline”, the T/C was 114 % of control.
As for `C=CC1=C(C)C(/C=c2/[nH]/c(=C\c3[nH]c(/C=C4/NC(=O)C(C)=C4C=C)c(C)c3CCC(=O)O)c(CCC(=O)O)c2C)=NC1=O`, the T/C is 95 % of control under setting [14], 91 % of control under setting [15] and 88 % of control under setting [16].
As to `Cc1ccc(S(=O)(=O)N/N=C/c2c(-c3ccccc3)nc3n2CCS3)cc1`, the T/C is, setting by setting: under setting [7], 99 % of control; under setting [8], 93 % of control; under setting [9], 94 % of control.
Consider `O=C1NC(=O)C2C(=O)NC(=O)C1C21CCc2ccccc21` (stereo not drawn), for which the T/C is 97 % of control under setting [10] and 86 % of control under setting [11].
Turning to `CC1(C)CC(=N/O)/C(=N/O)C(=N\NC(N)=S)/C1`, the T/C runs as follows: under setting [10], 97 % of control; under setting [11], 94 % of control; under setting [12], 97 % of control.
For the compound `CCCc1cc(=O)[nH]c(SCC(=O)O)n1`, the T/C under setting [10] was 100 % of control, the T/C under setting [11] is 101 % of control and the T/C under setting [12] is 99 % of control.
In the case of `O=C(CSc1nnc(-c2ccc(Cl)cc2)s1)Nc1nccs1`, the T/C reads like this: under setting [10], 89 % of control; under setting [11], 89 % of control; under setting [12], 89 % of control.
In the case of `O=[N+]([O-])/C=C\c1cc2c3c(c1)CCCN3CCC2`, the T/C is 100 % of control (dose: 12.5 mg/kg/injection, schedule: Q01DX009 (ip), vehicle: saline with Tween-80); 109 % of control (dose: 25.0 mg/kg/injection, schedule: Q01DX009 (ip), vehicle: saline with Tween-80); 109 % of control under setting [14].
For `C/C(=C\c1ccc(OCC(=O)O)c(Cl)c1Cl)[N+](=O)[O-]`, the T/C is 100 % of control and 102 % of control (dose: 12.5 mg/kg/injection, schedule: Q01DX001 (ip), vehicle: saline with Tween-80); 98 % of control and 100 % of control (dose: 25.0 mg/kg/injection, schedule: Q01DX001 (ip), vehicle: saline with Tween-80).
`CC(O)CN(CCN(CC(C)O)CC(C)O)CC(C)O.[Cl-].[Zn+2]` (stereo not drawn): the T/C by setting is: (dose: 12.5 mg/kg/injection, schedule: Q01DX009 (ip), vehicle: saline) 117 % of control; under setting [13], 122 % of control.
Consider `CCCCCCCCCCCC(=O)Nc1ncnc2nc[nH]c12`, for which the T/C is 93 % of control under setting [1]; 95 % of control under setting [2]; 98 % of control under setting [3]; 104 % of control (dose: 400.0 mg/kg/injection, schedule: Q01DX009 (ip), vehicle: Klucel (hydroxypropylcellulose) (HPC)).
For `CS(=O)(=O)N1C=Cc2ccccc2C=C1`, the T/C reads like this: (dose: 100.0 mg/kg/injection, schedule: Q04DX002 (ip), vehicle: saline with Tween-80) 99 % of control; (dose: 200.0 mg/kg/injection, schedule: Q04DX002 (ip), vehicle: saline with Tween-80) 90 % of control; (dose: 400.0 mg/kg/injection, schedule: Q04DX002 (ip), vehicle: saline with Tween-80) 99 % of control.
As to `COC(CNC(=O)COc1ccccc1OCC(=O)NCC(OC)OC)OC`, the T/C is, setting by setting: under setting [4], 99 % of control; under setting [5], 102 % of control; under setting [6], 102 % of control.
For `COC(=O)C(Cc1c[nH]c2ccccc12)N1CN(C)c2ccccc2C1=O` (stereo not drawn), the T/C was 98 % of control (dose: 60.0 mg/kg/injection, schedule: Q01DX005 (ip), vehicle: Klucel (hydroxypropylcellulose) (HPC)); 98 % of control (dose: 120.0 mg/kg/injection, schedule: Q01DX005 (ip), vehicle: Klucel (hydroxypropylcellulose) (HPC)); 90 % of control (dose: 240.0 mg/kg/injection, schedule: Q01DX005 (ip), vehicle: Klucel (hydroxypropylcellulose) (HPC)).
Regarding `CC(C)S(=O)c1ccc(Cl)cc1[N+](=O)[O-]` (stereo not drawn), the T/C was 99 % of control under setting [14], 99 % of control under setting [15] and 100 % of control under setting [16].
Consider `O=C(O)CC(CS(=O)CP(=O)(O)O)C(=O)O` (stereo not drawn), for which the T/C (dose: 60.0 mg/kg/injection, schedule: Q01DX005 (ip), vehicle: saline) was 93 % of control; the T/C (dose: 120.0 mg/kg/injection, schedule: Q01DX005 (ip), vehicle: saline) was 98 % of control; the T/C (dose: 240.0 mg/kg/injection, schedule: Q01DX005 (ip), vehicle: saline) was 95 % of control.

For the origin of these results see PubChem BioAssay AID330 (DTP/NCI, 2004).
